Our source for the IC50 values is patent US9315494B2, “Alkyl-amide-substituted pyridyl compounds useful as modulators of IL-12, IL-23 and/or IFNα responses” (Bristol-Myers Squibb Company, priority 2012, dated 2016).

The subject of assay [1] is IFNα-stimulated STAT-dependent luciferase reporter in Kit225 T cells. As to the kind of experiment: Kit225 T cell assay, IFNα stimulated STAT-dependent luciferase reporter. The assay is classed as cell-based, human. Conditions: Kit225 T cells, 200 U/mL human recombinant IFNα, 5-6 hours, luciferase; read-out: IFNα (Kit225 T Cell Inhibition Data). On the procedure: (§1) Kit225 T cells with a stably-integrated STAT-dependent luciferase reporter were plated in RPMI (Gibco) containing 10% heat-inactivated FBS (Gibco) and 100 U/mL PenStrep (Gibco). The cells were then stimulated with either 20 ng/mL human recombinant IL-23 or 200 U/mL human recombinant IFNα (PBL InterferonSource) for 5-6 hours. Luciferase expression was measured using the STEADY-GLO® Luciferase Assay System (Promega) according to the manufacturer's instructions.
(In a reporter assay the amount or activity of a reporter protein is the signal.)

Assay [2] has as its system IL-23-stimulated STAT-dependent luciferase reporter in Kit225 T cells. As to the kind of experiment: Kit225 T cell assay, IL-23 stimulated STAT-dependent luciferase reporter. The assay is classed as cell-based, human. Conditions: Kit225 T cells, 20 ng/mL human recombinant IL-23, 5-6 hours, luciferase; read-out: IL23 (Kit225 T Cell Inhibition Data). On the procedure: as §1

As to `CNC(=O)c1cnc(Nc2ccc(F)cn2)cc1Nc1ccccc1S(C)(=O)=O` [Example 1], the IC50 amounted to 70 nM in assay [1] and 98.5 nM in assay [2].

For the compound `CNC(=O)c1cnc(Nc2ccccn2)cc1Nc1ccccc1S(C)(=O)=O` [Example 3], the figures for the IC50 in assay [1] and in assay [2] were 70 nM and 61.4 nM, respectively. The matching figures for `CNC(=O)c1cnc(Nc2cc(C)ccn2)cc1Nc1ccccc1S(C)(=O)=O` [Example 4]: 30 nM and 36 nM. The matching figures for `CNC(=O)c1cnc(Nc2cc(C#N)ccn2)cc1Nc1ccccc1S(C)(=O)=O` [Example 5]: 50 nM and 82.2 nM. With `CNC(=O)c1cnc(Nc2ccc(F)cn2)cc1Nc1ccc(OC)cc1S(C)(=O)=O` [Example 6], the IC50 in assay [1] was determined as 110 nM; in assay [2], 91 nM.

As for `CNC(=O)c1cnc(Nc2ccc(N3CCOCC3)cn2)cc1Nc1ccc(OC)cc1S(C)(=O)=O` [Example 7], the IC50 in assay [1] was 100 nM; in assay [2] it was 154 nM. The matching figures for `CNC(=O)c1cnc(Nc2ccccn2)cc1Nc1ccc(OC)cc1S(C)(=O)=O` [Example 8]: 60 nM and 143 nM.

As to `CNC(=O)c1cnc(Nc2ccc(N3CCOCC3)cn2)cc1Nc1ccccc1S(C)(=O)=O` [Example 9], the IC50 in assay [1] amounted to 40 nM; in assay [2], 97.8 nM. The matching figures for `CNC(=O)c1cnc(Nc2ccccn2)cc1Nc1ccc(F)cc1S(C)(=O)=O` [Example 10]: 120 nM and 218 nM. With `CNC(=O)c1cnc(Nc2ccc(F)cn2)cc1Nc1ccc(Cl)cc1S(C)(=O)=O` [Example 11], the IC50 is 60 nM in assay [1] and 161 nM in assay [2]. The matching figures for `CNC(=O)c1cnc(Nc2ccccn2)cc1Nc1ccc(Cl)cc1S(C)(=O)=O` [Example 12]: 50 nM and 109 nM.

`CNC(=O)c1cnc(Nc2ccc(F)cn2)cc1Nc1ccc(F)cc1S(C)(=O)=O` [Example 13]: the IC50 in assay [1] turned out to be 120 nM; in assay [2], 257 nM. The matching figures for `CNC(=O)c1cnc(Nc2cc(C(F)(F)F)ccn2)cc1Nc1ccccc1S(C)(=O)=O` [Example 14]: 110 nM and 135 nM.

`CNC(=O)c1cnc(Nc2cc(OC)ccn2)cc1Nc1ccccc1S(C)(=O)=O` [Example 15]: the IC50 in assay [1] came to 80 nM; in assay [2], 108 nM. The matching figures for `CNC(=O)c1cnc(Nc2cccc(C(F)(F)F)n2)cc1Nc1ccccc1S(C)(=O)=O` [Example 16]: 100 nM and 180 nM. The matching figures for `CNC(=O)c1cnc(Nc2ccc(Cl)cn2)cc1Nc1ccccc1S(C)(=O)=O` [Example 17]: 100 nM and 104 nM. Consider `CNC(=O)c1cnc(Nc2cc(C(C)(C)C)ccn2)cc1Nc1ccccc1S(C)(=O)=O` [Example 18], for which the IC50 was 400 nM in assay [1] and 1120 nM in assay [2].

As to `CNC(=O)c1cnc(Nc2cc(S(=O)(=O)N(C)C)ccn2)cc1Nc1ccccc1S(C)(=O)=O` [Example 19], the results for the IC50 in assay [1] and in assay [2] were 430 nM and 749 nM, respectively.

With `CNC(=O)c1cnc(Nc2cccc(F)n2)cc1Nc1ccccc1S(C)(=O)=O` [Example 20], the IC50 worked out at 40 nM in assay [1] and 50.7 nM in assay [2]. The matching figures for `CNC(=O)c1cnc(Nc2cccc(C)n2)cc1Nc1ccccc1S(C)(=O)=O` [Example 21]: 30 nM and 50.9 nM. The matching figures for `CNC(=O)c1cnc(Nc2ccc(C)cn2)cc1Nc1ccccc1S(C)(=O)=O` [Example 22]: 50 nM and 64.9 nM. For the compound `CNC(=O)c1cnc(Nc2cc(F)ccn2)cc1Nc1ccccc1S(C)(=O)=O` [Example 23], the IC50 in assay [1] came to 90 nM; in assay [2], 115 nM. Regarding `CNC(=O)c1cnc(Nc2cccc(OC)n2)cc1Nc1ccccc1S(C)(=O)=O` [Example 24], the IC50 came out at 40 nM in assay [1] and 35.2 nM in assay [2].

Turning to `CNC(=O)c1cnc(Nc2cc3ccccc3cn2)cc1Nc1ccccc1S(C)(=O)=O` [Example 25], the results for the IC50 in assay [1] and in assay [2] were 110 nM and 87.7 nM, respectively. The matching figures for `CNC(=O)c1cnc(Nc2cc(C(C)=O)ccn2)cc1Nc1ccccc1S(C)(=O)=O` [Example 26]: 670 nM and 1060 nM.

`CNC(=O)c1cnc(Nc2cccc(C#N)n2)cc1Nc1ccccc1S(C)(=O)=O` [Example 27]: the IC50 in assay [1] amounted to 180 nM; in assay [2] it was 376 nM. For `CNC(=O)c1cnc(Nc2ccc(F)cn2)cc1Nc1ccccc1S(=O)(=O)C(F)(F)F` [Example 28], in assay [1], the IC50 was 9570 nM. `CNC(=O)c1cnc(Nc2ccccn2)cc1Nc1ccccc1S(=O)(=O)C(F)(F)F` [Example 29]: the figures for the IC50 in assay [1] and in assay [2] were 7980 nM and 7110 nM, respectively. The matching figures for `CNC(=O)c1cnc(Nc2cc(C#N)ccn2)cc1Nc1ccccc1S(C)(=O)=O` [Example 30]: 580 nM and 753 nM. The matching figures for `CCS(=O)(=O)c1ccccc1Nc1cc(Nc2ccccn2)ncc1C(=O)NC` [Example 31]: 1230 nM and 1860 nM. The matching figures for `CCS(=O)(=O)c1ccccc1Nc1cc(Nc2ccc(F)cn2)ncc1C(=O)NC` [Example 32]: 1080 nM and 2200 nM. Regarding `CCS(=O)(=O)c1ccccc1Nc1cc(Nc2cc(C#N)ccn2)ncc1C(=O)NC` [Example 33], the IC50 in assay [1] was 660 nM; in assay [2] it was 612 nM. The matching figures for `CNC(=O)c1cnc(Nc2cc(C#N)ccn2)cc1Nc1ccc(F)cc1S(C)(=O)=O` [Example 34]: 160 nM and 114 nM. Take `CNC(=O)c1cnc(Nc2cc(C#N)ccn2)cc1Nc1cccc(S(C)(=O)=O)c1F` [Example 35]: in assay [2], the IC50 stood at 4430 nM.

As for `CNC(=O)c1cnc(Nc2cccnn2)cc1Nc1ccccc1S(C)(=O)=O` [Example 36], the IC50 in assay [1] stood at 700 nM; in assay [2] it was 1310 nM. The matching figures for `CNC(=O)c1cnc(Nc2ccncn2)cc1Nc1ccccc1S(C)(=O)=O` [Example 37]: 1150 nM and 690 nM.

On to `CNC(=O)c1cnc(Nc2cnccn2)cc1Nc1ccccc1S(C)(=O)=O` [Example 38], for which the IC50 in assay [1] came out at 370 nM; in assay [2], 550 nM. The matching figures for `CNC(=O)c1cnc(Nc2cnccn2)cc1Nc1ccc(F)cc1S(C)(=O)=O` [Example 39]: 1540 nM and 1480 nM.

Consider `CNC(=O)c1cnc(Nc2cnc(C)cn2)cc1Nc1ccccc1S(C)(=O)=O` [Example 40], for which the IC50 in assay [1] and in assay [2] was 130 nM in each case. With `CNC(=O)c1cnc(Nc2cnc(C#N)cn2)cc1Nc1ccccc1S(C)(=O)=O` [Example 41], the IC50 amounted to 1910 nM in assay [1] and 6120 nM in assay [2].

With `CNC(=O)c1cnc(Nc2ccc(F)cn2)cc1Nc1ccc(S(C)(=O)=O)cc1OC` [Example 44], the results for the IC50 in assay [1] and in assay [2] were 1460 nM and 1240 nM, respectively. The matching figures for `CNC(=O)c1cnc(Nc2ccccn2)cc1Nc1ccc(S(C)(=O)=O)cc1OC` [Example 45]: 1250 nM and 4260 nM. The matching figures for `CNC(=O)c1cnc(Nc2ccccn2)cc1Nc1cccc(F)c1S(C)(=O)=O` [Example 46]: 1390 nM and 2980 nM. The matching figures for `CNC(=O)c1cnc(Nc2ccc(F)cn2)cc1Nc1cccc(F)c1S(C)(=O)=O` [Example 47]: 1680 nM and 2410 nM. Consider `CNC(=O)c1cnc(Nc2cc(C#N)ccn2)cc1Nc1cccc(F)c1S(C)(=O)=O` [Example 48], for which the IC50 in assay [1] was 960 nM; in assay [2] it was 1610 nM. On to `CNC(=O)c1cnc(Nc2cc(C)ccn2)cc1Nc1cccc(F)c1S(C)(=O)=O` [Example 49], for which the values for the IC50 in assay [1] and in assay [2] were 540 nM and 410 nM, respectively.

As for `CNC(=O)c1cnc(Nc2cc(F)ccn2)cc1Nc1cccc(F)c1S(C)(=O)=O` [Example 50], the IC50 in assay [1] was found to be 2000 nM; in assay [2] it was 1540 nM. The matching figures for `CNC(=O)c1cnc(Nc2cc(F)ccn2)cc1Nc1ccc(F)cc1S(C)(=O)=O` [Example 51]: 200 nM and 270 nM.

In the case of `CNC(=O)c1cnc(Nc2cc(C)ccn2)cc1Nc1ccc(F)cc1S(C)(=O)=O` [Example 52], the IC50 in assay [1] worked out at 90 nM; in assay [2], 200 nM. For the compound `CNC(=O)c1cnc(Nc2ccccn2)cc1Nc1cc(F)ccc1S(C)(=O)=O` [Example 53], the results for the IC50 in assay [1] and in assay [2] were 80 nM and 90 nM, respectively. On to `CNC(=O)c1cnc(Nc2ccc(C(N)=O)cn2)cc1Nc1ccccc1C(N)=O` [Example 93], for which the IC50 in assay [2] is 466 nM.

As to `CNC(=O)c1cnc(Nc2cc(C#N)ccn2)cc1Nc1cccc(C)c1C(N)=O` [Example 177], the IC50 in assay [2] amounted to 388 nM. Still for that read-out and setting: then `CNC(=O)c1cnc(Nc2ccc(C(F)(F)F)cn2)cc1Nc1ccccc1C(C)(C)O` [Example 181], with 6170 nM; and `CNC(=O)c1cnc(Nc2cccnn2)cc1Nc1ccccc1C(C)(C)O` [Example 182], with 8850 nM. For the compound `CNC(=O)c1cnc(Nc2ccc(F)cn2)cc1Nc1ccc(F)cc1C` [Example 189], the IC50 in assay [1] worked out at 9370 nM.

With `CNC(=O)c1cnc(Nc2ccc(F)cn2)cc1Nc1cccc(OC)c1` [Example 202], the IC50 in assay [1] is 6560 nM.

Consider `CNC(=O)c1cnc(Nc2ccc(F)cn2)cc1Nc1cc2ccccc2cc1C(N)=O` [Example 253], for which the IC50 in assay [1] was found to be 440 nM. Take `CNC(=O)c1cnc(Nc2cc(S(C)(=O)=O)ccn2)cc1Nc1cccc(F)c1OC` [Example 282]: the IC50 in assay [2] was determined as 511 nM.
